Reference: ChEMBL document CHEMBL3227941, “3-Substituted adenines. In vitro enzyme inhibition and antiviral activity” (J Med Chem, 1979)

Experiments:
[1] = biological target: T1, Dopamine beta-hydroxylase (Bos taurus, UniProt P15101); experiment: Inhibition of bovine adrenal medullae dopamine-beta-hydroxylase; set-up: species or system Adrenal medulla; conditions: read-out: I50 (converted)
T1 sequence (P15101 whole entry): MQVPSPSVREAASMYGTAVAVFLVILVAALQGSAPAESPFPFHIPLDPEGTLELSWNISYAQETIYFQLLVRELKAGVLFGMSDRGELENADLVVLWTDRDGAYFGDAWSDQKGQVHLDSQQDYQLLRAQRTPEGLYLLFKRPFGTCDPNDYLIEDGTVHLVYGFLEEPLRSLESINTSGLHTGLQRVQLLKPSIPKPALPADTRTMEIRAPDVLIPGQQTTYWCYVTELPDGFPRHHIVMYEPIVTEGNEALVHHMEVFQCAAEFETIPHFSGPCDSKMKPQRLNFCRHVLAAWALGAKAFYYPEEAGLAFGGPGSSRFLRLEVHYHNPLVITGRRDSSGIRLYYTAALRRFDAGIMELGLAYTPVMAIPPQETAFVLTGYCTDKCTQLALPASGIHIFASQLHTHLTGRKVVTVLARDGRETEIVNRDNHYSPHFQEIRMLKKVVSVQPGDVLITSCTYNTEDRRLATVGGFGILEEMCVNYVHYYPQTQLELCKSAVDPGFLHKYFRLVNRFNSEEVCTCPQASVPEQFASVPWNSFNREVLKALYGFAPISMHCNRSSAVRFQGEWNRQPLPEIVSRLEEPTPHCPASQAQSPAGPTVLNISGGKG

Human alphaherpesvirus 1 [2] = experiment: Antiviral activity against HSV1 infected in African green monkey BSC-1 cells assessed as inhibition of virus multiplication at 50 ug/ml after 96 hrs by plaque reduction assay; assay type: functional; conditions: Human alphaherpesvirus 1, BSC-1, 96 h
Human alphaherpesvirus 1 [3] = experiment: Antiviral activity against HSV1 infected in African green monkey BSC-1 cells assessed as inhibition of virus multiplication at 25 ug/ml after 96 hrs by plaque reduction assay; assay type: functional; conditions: Human alphaherpesvirus 1, BSC-1, 96 h
Human alphaherpesvirus 1 [4] = experiment: Antiviral activity against HSV1 infected in African green monkey BSC-1 cells assessed as inhibition of virus multiplication at 12 ug/ml after 96 hrs by plaque reduction assay; assay type: functional; conditions: Human alphaherpesvirus 1, BSC-1, 96 h
Human alphaherpesvirus 1 [5] = experiment: Antiviral activity against HSV1 infected in African green monkey BSC-1 cells assessed as inhibition of virus multiplication at 6 ug/ml after 96 hrs by plaque reduction assay; assay type: functional; conditions: Human alphaherpesvirus 1, BSC-1, 96 h
Vaccinia virus [6] = experiment: Antiviral activity against Vaccinia virus infected in African green monkey BSC-1 cells assessed as inhibition of virus multiplication at 100 ug/ml after 96 hrs by plaque reduction assay; assay type: functional; conditions: Orthopoxvirus vaccinia, BSC-1, 96 h
Vaccinia virus [7] = experiment: Antiviral activity against Vaccinia virus infected in African green monkey BSC-1 cells assessed as inhibition of virus multiplication at 50 ug/ml after 96 hrs by plaque reduction assay; assay type: functional; conditions: Orthopoxvirus vaccinia, BSC-1, 96 h
Vaccinia virus [8] = experiment: Antiviral activity against Vaccinia virus infected in African green monkey BSC-1 cells assessed as inhibition of virus multiplication at 25 ug/ml after 96 hrs by plaque reduction assay; assay type: functional; conditions: Orthopoxvirus vaccinia, BSC-1, 96 h
Vaccinia virus [9] = experiment: Antiviral activity against Vaccinia virus infected in African green monkey BSC-1 cells assessed as inhibition of virus multiplication at 12 ug/ml after 96 hrs by plaque reduction assay; assay type: functional; conditions: Orthopoxvirus vaccinia, BSC-1, 96 h
Vaccinia virus [10] = experiment: Antiviral activity against Vaccinia virus infected in African green monkey BSC-1 cells assessed as inhibition of virus multiplication at 6 ug/ml after 96 hrs by plaque reduction assay; assay type: functional; conditions: Orthopoxvirus vaccinia, BSC-1, 96 h
[11] = Cytotoxicity against Vaccinia virus infected African green monkey BSC1 cells at 100 ug/ml; assay type: cell-based; conditions: chlorocebus aethiops, bsc-1
[12] = Cytotoxicity against HSV1 infected African green monkey BSC1 cells at 50 ug/ml; assay type: cell-based; conditions: chlorocebus aethiops, bsc-1
[13] = Cytotoxicity against Vaccinia virus infected African green monkey BSC1 cells at 50 ug/ml; assay type: cell-based; conditions: chlorocebus aethiops, bsc-1
[14] = Cytotoxicity against Vaccinia virus infected African green monkey BSC1 cells at 25 ug/ml; assay type: cell-based; conditions: chlorocebus aethiops, bsc-1
Vaccinia virus [15] = experiment: Antiviral activity against Vaccinia virus infected in African green monkey BSC-1 cells assessed as inhibition of virus multiplication at 3 ug/ml after 96 hrs by plaque reduction assay; assay type: functional; conditions: Orthopoxvirus vaccinia, BSC-1, 96 h

Row | SMILES | IC50 [1] [µM] | inhibition at 50 µg/mL (Human alphaherpesvirus 1 [2]) [%] | inhibition at 25 µg/mL (Human alphaherpesvirus 1 [3]) [%] | inhibition at 12 µg/mL (Human alphaherpesvirus 1 [4]) [%] | inhibition at 6 µg/mL (Human alphaherpesvirus 1 [5]) [%] | inhibition at 100 µg/mL (Vaccinia virus [6]) [%] | inhibition at 50 µg/mL (Vaccinia virus [7]) [%] | inhibition at 25 µg/mL (Vaccinia virus [8]) [%] | inhibition at 12 µg/mL (Vaccinia virus [9]) [%] | inhibition at 6 µg/mL (Vaccinia virus [10]) [%] | Activity [11] | Activity [12] | Activity [13] | Activity [14] | inhibition at 3 µg/mL (Vaccinia virus [15]) [%]
1 | CCn1cnc(N)c2ncnc1-2 [3-ETHYLADENINE] | > 1230 | 0 | 0 | 0 | 0 | 0 | 0 | 0 | 0 | 0 | – | – | – | – | –
2 | CCCCCCn1cnc(N)c2ncnc1-2 | 4.56 | 16 | 0 | 0 | 0 | – | 100 | 77 | 27 | – | Toxic | – | – | – | –
3 | Nc1ncn(Cc2ccc(Cl)cc2Cl)c2ncnc1-2 | 680 | – | 20 | 0 | 0 | – | – | – | 0 | 0 | Toxic | Toxic | Toxic | Toxic | –
4 | Nc1ncn(Cc2ccccc2Cl)c2ncnc1-2 | 770 | 100 | 100 | 42 | 0 | – | 100 | 0 | 0 | 0 | Toxic | – | – | – | 0
5 | Nc1ncn(CC2CCCCC2)c2ncnc1-2 | 8.65 | 0 | 0 | 0 | 0 | – | 7 | 0 | 0 | – | – | – | – | – | –
6 | Cc1ccccc1Cn1cnc(N)c2ncnc1-2 | 836 | 30 | 0 | 0 | 0 | – | 0 | 0 | 0 | – | Toxic | – | – | – | –
7 | Cc1cccc(Cn2cnc(N)c3ncnc2-3)c1 | 83.6 | 9 | 0 | 0 | 0 | – | 0 | 0 | 0 | – | Toxic | – | – | – | –
8 | Nc1ncn(Cc2ccc(Cl)c(Cl)c2)c2ncnc1-2 | 6.8 | – | 27 | 0 | 0 | – | – | – | 100 | 87 | Toxic | Toxic | Toxic | Toxic | 47
9 | Nc1ncn(Cc2ccccc2)c2ncnc1-2 [3-BENZYLADENINE] | 8.88 | 0 | 0 | 0 | 0 | 3 | 3 | 0 | 0 | – | – | – | – | – | –
10 | CC(C)CCn1cnc(N)c2ncnc1-2 | 974 | 27 | 0 | 0 | 0 | 8 | 7 | 7 | 0 | 0 | – | – | – | – | –
11 | CCCCCn1cnc(N)c2ncnc1-2 | 2.44 | 3 | 0 | 0 | 0 | 96 | 72 | 35 | 33 | – | – | – | – | – | –
12 | CCCn1cnc(N)c2ncnc1-2 [3-PROPYLADENINE] | 1130 | 0 | 0 | 0 | 0 | 0 | 0 | 0 | 0 | 0 | – | – | – | – | –
13 | Nc1ncn(Cc2ccc(Cl)cc2)c2ncnc1-2 | 77 | 15 | 0 | 0 | 0 | – | 100 | 70 | 51 | – | Toxic | – | – | – | –
14 | CCCCn1cnc(N)c2ncnc1-2 [3-BUTYLADENINE] | 105 | 0 | 0 | 0 | 0 | 1 | 0 | 0 | 0 | – | – | – | – | – | –
15 | Nc1ncn(Cc2cccc(Cl)c2)c2ncnc1-2 | 7.7 | 45 | 0 | 0 | 0 | 100 | 37 | 16 | 0 | 0 | – | – | – | – | –
16 | Nc1ncn(Cc2cccc(C(F)(F)F)c2)c2ncnc1-2 | 68.2 | – | – | – | – | – | – | – | – | – | – | – | – | – | –
17 | Nc1ncn(Cc2ccco2)c2ncnc1-2 | – | 0 | 0 | 0 | 0 | 0 | 0 | 0 | – | – | – | – | – | – | –
18 | Cc1ccc(Cn2cnc(N)c3ncnc2-3)cc1 | 83.6 | 0 | 0 | 0 | 0 | – | 10 | 8 | 0 | – | Toxic | – | – | – | –
